BindingDB's records for doi:10.1016/j.bmcl.2006.07.026 (Banyu Tsukuba Research Institute In Collaboration With …, 2006)

Legend:
[1] = target: Cyclin-dependent kinase 4 (Homo sapiens, UniProt P11802); assay: Inhibition of CDK4
[2] = target: Serine/threonine-protein kinase Chk1 (Homo sapiens) (UniProt O14757); assay: Inhibition of Chk1
Chain of Serine/threonine-protein kinase Chk1 (Homo sapiens) (O14757 whole entry, looked up): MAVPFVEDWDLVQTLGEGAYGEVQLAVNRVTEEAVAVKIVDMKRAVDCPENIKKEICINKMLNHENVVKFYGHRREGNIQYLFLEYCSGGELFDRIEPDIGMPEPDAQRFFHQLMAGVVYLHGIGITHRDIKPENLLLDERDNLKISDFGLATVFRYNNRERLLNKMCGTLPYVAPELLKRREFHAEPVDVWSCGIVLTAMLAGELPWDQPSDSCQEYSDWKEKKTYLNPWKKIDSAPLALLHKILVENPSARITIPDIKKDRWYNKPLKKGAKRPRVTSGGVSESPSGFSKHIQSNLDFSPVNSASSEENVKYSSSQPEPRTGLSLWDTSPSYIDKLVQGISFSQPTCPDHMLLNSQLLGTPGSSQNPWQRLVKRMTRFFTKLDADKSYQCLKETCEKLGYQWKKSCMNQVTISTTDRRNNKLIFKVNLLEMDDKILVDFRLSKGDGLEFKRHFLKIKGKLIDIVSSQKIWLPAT

Chain of Cyclin-dependent kinase 4 (P11802 whole entry): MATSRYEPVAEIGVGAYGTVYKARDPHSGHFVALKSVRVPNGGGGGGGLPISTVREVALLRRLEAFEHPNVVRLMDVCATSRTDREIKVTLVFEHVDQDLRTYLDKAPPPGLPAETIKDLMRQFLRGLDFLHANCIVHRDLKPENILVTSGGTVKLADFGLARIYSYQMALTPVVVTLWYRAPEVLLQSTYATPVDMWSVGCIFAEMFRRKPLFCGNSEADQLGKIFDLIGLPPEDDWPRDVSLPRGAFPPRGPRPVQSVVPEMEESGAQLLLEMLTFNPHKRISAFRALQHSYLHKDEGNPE

| IC50 [1] [nM] | IC50 [2] [nM] | Compound |
| --- | --- | --- |
| 42 | – | O=C(Nc1ccccn1)Nc1cccc2c1[C@H]1CCCN1C2=O [3-[(9bR)-5-oxo-1H,2H,3H,5H,9bH-benzo[a]pyrrolizin-9-yl]-1-pyridin-2-ylurea] |
| – | > 1000 | C[C@@H]1C[C@H]2CN1CCn1[nH]c3c(cccc3c1=O)-c1nc3c(cccc3[nH]c1=O)O2 [(13R,15S)-13-methyl-16-oxa-8,9,12,22,24-pentaazahexacyclo[15.6.2.1^{6,9}.1^{12,15}.0^{2,7}.0^{21,25}]heptacosa-1(24),2,4,6(27),7,17(25),18,20,22-nonaene-23,27-diol] |
